Laboratory results taken from US20230340127A1, “METHODS AND COMPOSITIONS FOR CANCER TREATMENT BY INHIBITION OF FBXO44” (Sanford Burnham Prebys Medical Discovery Institute, priority 2022, published 2023).

Tested on: MDA-MB-231 or 4T1 cells
Experiment: qRT-PCR of endogenous retroelements, IFN-α/β, ISGs and PD-L1 in F5446-treated cells
Assay type: cell-based
Details: cancer cells (MDA-MB-231, 4T1), qRT-PCR (FIGS. 10F-10G)
Experimental: Quantitative (q)RT-PCR: total RNA was isolated using the RNeasy Plus Mini Kit (Qiagen no. 74134). cDNA was synthesized using qScript cDNA SuperMix (Quantabio no. 95048) following the manufacturer's instructions. qPCR reactions were performed using SYBR Select Master Mix (Thermo Fisher Scientific no. 4472908) and a Stratagene Mx3000P instrument (Agilent Technologies). Thermal cycling conditions included an initial denaturation step of 95° C. for 10 min and 40 cycles at 95° C. for 15 sec and 60° C. for 60 sec. Analyses were carried out in triplicate for each data point. The qPCR primers used for gene expression analysis of human REs and genes included MajSAT-[…] (SEQ ID NO: 1) and […] (SEQ ID NO: 2), mcBox-[…] (SEQ ID NO: 3) and […] (SEQ ID NO: 4), SATIII-[…] (SEQ ID NO: 5) and […] (SEQ ID NO: 6), Alu-[…] (SEQ ID NO: 7) and […] (SEQ ID NO: 8), L1 ORF1-TGGCCCCCACTCTCTTCT (SEQ ID NO: 18) and […] (SEQ ID NO: 19), L1 ORF2-[…] (SEQ ID NO: 20) and […] (SEQ ID NO: 21), L1 5′-UTR-AAGCAAGCCTGGGCAATG (SEQ ID NO: 22) and […] (SEQ ID NO: 23), HERV-E-[…] (SEQ ID NO: 24) and GCAGCCTAGGTCTCTGG (SEQ ID NO: 25), HERV-F-CCTCCAGTCACAACAACTC (SEQ ID NO: 26) and TATTGAAGAAGGCGGCTGG (SEQ ID NO: 27), HERV-K-[…] (SEQ ID NO: 28) and […] (SEQ ID NO: 29), ERVL-[…] (SEQ ID NO: 30) and […] (SEQ ID NO: 31), GAPDH-[…] (SEQ ID NO: 32) and […] (SEQ ID NO: 33), FBXO44-[…] (SEQ ID NO: 34) and […] (SEQ ID NO: 35), SUV39H1-[…] […]

With COC(=O)c1cc2c(n1S(=O)(=O)c1ccc(Cl)cc1)C(=O)C(=O)c1[nH]cc(C(=O)OCc3ccccc3)c1-2 [F5446] the “expression of various REs and IFN signaling” value was “activated”.
